Data from PubChem BioAssay (NCI).
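Where inhibition never reached the appropriate level, the endpoint shown equals the highest concentration tested. Otherwise, values were interpolated linearly from a five-concentration, 48-hour dose response in 96-well plates. GI50: concentration for 50% inhibition of growth. TGI marks complete inhibition of growth.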

How the values were obtained:
Assay in all cases: inhibition of tumour cell growth, NCI panel, 48 h
[1] = system: A498 renal
[2] = system: 786-0 renal
[3] = system: HL-60(TB) leukemia
[4] = system: LOX IMVI melanoma
[5] = system: HS 578T breast
[6] = system: SW-620 colon
[7] = system: BT-549 breast
[8] = system: MALME-3M melanoma
[9] = system: ACHN renal
[10] = system: K-562 leukemia
[11] = system: NCI-H23 lung
[12] = system: OVCAR-3 ovarian
[13] = system: UACC-62 melanoma
[14] = system: M14 melanoma
[15] = system: U251 CNS
[16] = system: SK-MEL-28 melanoma
[17] = system: A549 NSCLC
[18] = system: HOP-62 NSCLC
[19] = system: SF-539 CNS
[20] = system: OVCAR-5 ovarian
[21] = system: CAKI-1 renal
[22] = system: HCT-15 colon
[23] = system: NCI-H460 lung
[24] = system: SF-295 CNS
[25] = system: UACC-257 melanoma
[26] = system: MOLT-4 leukemia
[27] = system: HCT-116 colon
[28] = system: NCI-H522 lung
[29] = system: HT29 colon
[30] = system: SK-OV-3 ovarian
[31] = system: COLO 205 colon
[32] = system: TK-10 renal
[33] = system: SR leukemia
[34] = system: NCI-H226 lung
[35] = system: NCI/ADR-RES ovarian
[36] = system: MCF7 breast
[37] = system: OVCAR-8 ovarian
[38] = system: IGROV1 ovarian
[39] = system: RXF 393 renal
[40] = system: SNB-75 CNS
[41] = system: HCC-2998 colon
[42] = system: CCRF-CEM leukemia
[43] = system: MDA-MB-435
[44] = system: T-47D breast
[45] = system: SK-MEL-5 melanoma
[46] = system: SNB-19 CNS
[47] = system: SK-MEL-2 melanoma
[48] = system: PC-3 prostate
[49] = system: RPMI-8226 leukemia
[50] = system: UO-31 renal
[51] = system: MDA-MB-231 breast
[52] = system: KM12 colon
[53] = system: SF-268 CNS
[54] = system: HOP-92 NSCLC
[55] = system: SN12C renal
[56] = system: DU-145 prostate
[57] = system: EKVX NSCLC

CC(C)c1c(C(=O)Nc2ccccc2)c(-c2ccccc2)c(-c2ccc(F)cc2)n1CC[C@@H]1CC=CC(=O)O1
GI50 [1]: 4920 nM
TGI [1]: 19100 nM
GI50 [2]: 1680 nM
TGI [2]: 3560 nM
GI50 [3]: 1240 nM
TGI [3]: 6420 nM
GI50 [4]: 1630 nM
TGI [4]: 3060 nM
GI50 [5]: 2140 nM
TGI [5]: 6050 nM
GI50 [6]: 1710 nM
TGI [6]: 3520 nM
GI50 [7]: 1600 nM
TGI [7]: 3460 nM
GI50 [8]: 1760 nM
TGI [8]: 3410 nM
GI50 [9]: 1570 nM
TGI [9]: 2920 nM
GI50 [10]: 422 nM
TGI [10]: 2620 nM
GI50 [11]: 2030 nM
TGI [11]: 4040 nM
GI50 [12]: 1800 nM
TGI [12]: 3310 nM
GI50 [13]: 1700 nM
TGI [13]: 3370 nM
GI50 [14]: 1000 nM
TGI [14]: 2480 nM
GI50 [15]: 1700 nM
TGI [15]: 3170 nM
GI50 [16]: 1690 nM
TGI [16]: 3140 nM
GI50 [17]: 1990 nM
TGI [17]: 4600 nM
GI50 [18]: 1850 nM
TGI [18]: 4140 nM
GI50 [19]: 1610 nM
TGI [19]: 3140 nM
GI50 [20]: 2050 nM
TGI [20]: 5020 nM
GI50 [21]: 1600 nM
TGI [21]: 3450 nM
GI50 [22]: 1880 nM
TGI [22]: 3850 nM
GI50 [23]: 2050 nM
TGI [23]: 4210 nM
GI50 [24]: 3280 nM
TGI [24]: 13600 nM
GI50 [25]: 1970 nM
TGI [25]: 3920 nM
GI50 [26]: 2620 nM
TGI [26]: 6980 nM
GI50 [27]: 278 nM
TGI [27]: 1230 nM
GI50 [28]: 1500 nM
TGI [28]: 2980 nM
GI50 [29]: 1620 nM
TGI [29]: 3660 nM
GI50 [30]: 3390 nM
TGI [30]: 11900 nM
GI50 [31]: 1680 nM
TGI [31]: 3500 nM
GI50 [32]: 2180 nM
TGI [32]: 4670 nM
GI50 [33]: 2660 nM
TGI [33]: 9490 nM
GI50 [34]: 1710 nM
TGI [34]: 3260 nM
GI50 [35]: 2460 nM
TGI [35]: 6090 nM
GI50 [36]: 1780 nM
TGI [36]: 4010 nM
GI50 [37]: 2230 nM
TGI [37]: 5230 nM
GI50 [38]: 2300 nM
TGI [38]: 5410 nM
GI50 [39]: 1620 nM
TGI [39]: 3130 nM
GI50 [40]: 1430 nM
TGI [40]: 2780 nM
GI50 [41]: 1920 nM
TGI [41]: 3500 nM
GI50 [42]: 390 nM
TGI [42]: 2440 nM
GI50 [43]: 1700 nM
TGI [43]: 3270 nM
GI50 [44]: 2580 nM
TGI [44]: 7650 nM
GI50 [45]: 1580 nM
TGI [45]: 2940 nM
GI50 [46]: 1700 nM
TGI [46]: 3130 nM
GI50 [47]: 1870 nM
TGI [47]: 3430 nM
GI50 [48]: 1310 nM
TGI [48]: 3860 nM
GI50 [49]: 285 nM
TGI [49]: 1170 nM
GI50 [50]: 1280 nM
TGI [50]: 2570 nM
GI50 [51]: 2080 nM
TGI [51]: 4510 nM
GI50 [52]: 1650 nM
TGI [52]: 3240 nM
GI50 [53]: 1810 nM
TGI [53]: 3650 nM
GI50 [54]: 419 nM
TGI [54]: 2280 nM
GI50 [55]: 1010 nM
TGI [55]: 3820 nM
GI50 [56]: 1840 nM
TGI [56]: 3270 nM
GI50 [57]: 1860 nM
TGI [57]: 3680 nM
